Tests used:
[1] = test system: KAI3 (IL-2 2.5 ng/mL); assay: percent inhibition of viability; higher = more inhibition; conditions: 72 h
[2] = test system: normal primary NK cells, pool 1 (3 donors), resting (IL-2 0 ng/mL); assay: as above; conditions: 72 h
[3] = test system: SNK-6 (IL-2 2.5 ng/mL); assay: as above; conditions: 72 h
[4] = test system: IMC-1 (IL-2 20 ng/mL); assay: as above; conditions: 72 h
[5] = test system: NK-YS (IL-2 2.5 ng/mL); assay: as above; conditions: 72 h
[6] = test system: NKL (IL-2 2.5 ng/mL); assay: as above; conditions: 72 h
[7] = test system: NK-92 (IL-2 2.5 ng/mL); assay: as above; conditions: 72 h
[8] = test system: normal primary NK cells, pool 3 (3 donors) (IL-2 2.5 ng/mL); assay: as above; conditions: 72 h
[9] = test system: YT (IL-2 2.5 ng/mL); assay: as above; conditions: 72 h
[10] = test system: normal primary NK cells, pool 1 (3 donors) (IL-2 2.5 ng/mL); assay: as above; conditions: 72 h
[11] = test system: DERL-7 (IL-2 2.5 ng/mL); assay: as above; conditions: 72 h
[12] = test system: KHYG-1 (IL-2 2.5 ng/mL); assay: as above; conditions: 72 h
[13] = test system: normal primary NK cells, pool 2 (3 donors) (IL-2 2.5 ng/mL); assay: as above; conditions: 72 h
[14] = test system: normal NK cells expanded with K562-aAPC; assay: as above; conditions: 72 h, IL-2 2.5 ng/mL
Description: (§1)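 Drug sensitivity and resistance testing on K562-aAPC-expanded normal NK cells: 5 concentrations (10-fold steps over a 10,000-fold range), 72 h at 37 °C, viability by CellTiter-Glo normalised to DMSO and benzethonium chloride controls; DSS from the fitted curve.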

[15] = test system: KAI3 (IL-2 2.5 ng/mL); assay: drug sensitivity score (DSS) (DSS units); higher = more sensitive; extreme values may be limits of the assay; conditions: 72 h
[16] = test system: normal primary NK cells, pool 1 (3 donors), resting (IL-2 0 ng/mL); assay: as above; conditions: 72 h
[17] = test system: SNK-6 (IL-2 2.5 ng/mL); assay: as above; conditions: 72 h
[18] = test system: IMC-1 (IL-2 20 ng/mL); assay: as above; conditions: 72 h
[19] = test system: NK-YS (IL-2 2.5 ng/mL); assay: as above; conditions: 72 h
[20] = test system: NKL (IL-2 2.5 ng/mL); assay: as above; conditions: 72 h
[21] = test system: NK-92 (IL-2 2.5 ng/mL); assay: as above; conditions: 72 h
[22] = test system: normal primary NK cells, pool 3 (3 donors) (IL-2 2.5 ng/mL); assay: as above; conditions: 72 h
[23] = test system: YT (IL-2 2.5 ng/mL); assay: as above; conditions: 72 h
[24] = test system: normal primary NK cells, pool 1 (3 donors) (IL-2 2.5 ng/mL); assay: as above; conditions: 72 h
[25] = test system: DERL-7 (IL-2 2.5 ng/mL); assay: as above; conditions: 72 h
[26] = test system: KHYG-1 (IL-2 2.5 ng/mL); assay: as above; conditions: 72 h
[27] = test system: normal primary NK cells, pool 2 (3 donors) (IL-2 2.5 ng/mL); assay: as above; conditions: 72 h
[28] = test system: normal NK cells expanded with K562-aAPC; assay: as above; conditions: 72 h; IL-2 2.5 ng/mL
Description: as §1

Nc1ccn([C@@H]2O[C@H](CO)[C@@H](O)[C@@H]2O)c(=O)n1 [Cytarabine] (max concentration tested 10000 nM)
percent inhibition of viability [%]
Conditions	1 nM	10 nM	100 nM	1000 nM	10000 nM
[1]	-13.4	12.5	67.4	95.8	95.5
[2]	-11.7	-15.1	-18.8	29.4	78.7
[3]	18.7	4.98	31.7	83.1	97.5
[4]	-2.71	-1.64	59.5	98.2	99.6
[5]	-6.32	-1.48	14	77.5	92.9
[6]	-6.71	6.58	60.2	94.3	93.6
[7]	0.96	0.98	50.8	95.5	97.8
[8]	-11.3	-7.93	-9.4	7.11	73.2
[9]	-3.82	0.15	-0.65	19.1	28.4
[10]	-4.48	-4.56	-4.83	23	80.4
[11]	-3.03	23.2	88.8	98.1	99.7
[12]	-3.64	17.1	88.3	105	102
[13]	-14.2	-13.4	-1.98	13.2	79.9
[14]	0.23	-1.23	28.7	84.4	98.9

Conditions	drug sensitivity score
[15]	26.2
[16]	8.4
[17]	19.1
[18]	25
[19]	16
[20]	24.4
[21]	23.6
[22]	5.19
[23]	3.34
[24]	7.89
[25]	31.5
[26]	30.8
[27]	6.63
[28]	19

C[C@@H](Oc1cc(-n2cnc3ccc(CN4CCN(C)CC4)cc32)sc1C(N)=O)c1ccccc1C(F)(F)F (max concentration tested 10000 nM)
percent inhibition of viability [%]
Conditions	1 nM	10 nM	100 nM	1000 nM	10000 nM
[1]	-0.2	19.3	57.2	46.8	103
[2]	15.5	24.8	22.1	54.6	96.9
[3]	-6.84	54.4	70.9	60.5	100
[4]	-5.44	-5.88	96.8	98	99.8
[5]	-6.78	7.77	68.5	63.2	107
[6]	-22.4	10.7	76.8	76.5	107
[7]	-10.3	68.8	96.9	98.4	108
[8]	-0.27	-3.72	15.8	9.91	100
[9]	-6.84	0.54	79.4	64	108
[10]	-0.02	-2.73	1.92	18.8	99.3
[11]	-5.05	5.6	99	97.7	101
[12]	-6.87	20.7	99	104	109
[13]	-4.17	-1.65	6.09	21.6	97.1
[14]	-4.93	10.2	55.8	59.8	101

Conditions	drug sensitivity score
[15]	19.3
[16]	15.5
[17]	27.6
[18]	29.6
[19]	23.1
[20]	27.8
[21]	38.4
[22]	7.17
[23]	27.5
[24]	8.55
[25]	31.2
[26]	33.8
[27]	8.79
[28]	19.8

Oc1ccc2c(c1)CC[C@H](c1ccccc1)[C@@H]2c1ccc(OCCN2CCCC2)cc1 [Lasofoxifene] (max concentration tested 1000 nM)
percent inhibition of viability [%]
Conditions	0.1 nM	1 nM	10 nM	100 nM	1000 nM
[1]	-1.79	-1.38	0	-0.11	15.5
[2]	7.2	-0.67	3.19	-7	6.03
[3]	4.04	34.2	14.3	17.7	-1.3
[4]	0.35	0.07	4.03	6.29	19.9
[5]	1.84	-2.69	2.36	-0.77	10.5
[6]	-11.5	-1.59	-8.69	-4.01	-9.81
[7]	6.27	1.85	5.66	-5.53	1.52
[8]	-15.8	-8.59	-8.05	-11	-1.01
[9]	2.75	2.01	2.57	-4.31	1.17
[10]	-0.49	-5.39	5.47	-10.7	0.81
[11]	-2.25	-2.91	-6	-9.21	0.79
[12]	-2.09	-2.31	1.74	5.02	8.46
[13]	-15.6	-6.78	-5.24	-11.7	-1.2
[14]	-6.28	-2.87	-0.97	5.89	14.2

Conditions	drug sensitivity score
[15]	0.26
[16]	0
[17]	0
[18]	0.95
[19]	0
[20]	0
[21]	0
[22]	0
[23]	0
[24]	0
[25]	0
[26]	0
[27]	0
[28]	0.59
